From patent publication US8119624B2, “Fused phenyl amido heterocyclic compounds” (Pfizer Inc., priority 2006, dated 2012)

Molecular target: T1, Full-length glucokinase (beta cell isoform) (Homo sapiens, UniProt P35557)
T1 construct: Full-length glucokinase (beta cell isoform) was His-tagged at N-terminus; His tag (N); made in house
T1 sequence (P35557 1-465): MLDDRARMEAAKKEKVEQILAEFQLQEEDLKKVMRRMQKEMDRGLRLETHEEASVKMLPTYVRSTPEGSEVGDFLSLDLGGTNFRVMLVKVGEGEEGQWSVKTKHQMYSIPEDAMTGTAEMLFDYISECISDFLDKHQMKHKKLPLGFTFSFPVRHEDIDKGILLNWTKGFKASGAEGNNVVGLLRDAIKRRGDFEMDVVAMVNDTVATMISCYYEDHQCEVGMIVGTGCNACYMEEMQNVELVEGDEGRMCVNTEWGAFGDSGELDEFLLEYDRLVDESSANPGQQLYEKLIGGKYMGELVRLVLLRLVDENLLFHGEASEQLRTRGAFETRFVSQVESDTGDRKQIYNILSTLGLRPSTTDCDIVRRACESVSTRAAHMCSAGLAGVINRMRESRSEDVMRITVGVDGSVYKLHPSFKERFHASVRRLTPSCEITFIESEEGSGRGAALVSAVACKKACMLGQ
Assay: Glucokinase biochemical assay (PK/LDH-coupled, NADH depletion at 340 nm): % activation, EC50, % max activation
Conditions: 5 mM glucose; for activation at 10 µM: 10 uM compound, % Activation=(Va/Vo−1)×100, read-out: % Activation at 10 uM; for EC50: GK activation, read-out: EC50; for Emax: fitted maximum activation, read-out: % Max Activation
Method: Full-length glucokinase (beta cell isoform) was His-tagged at N-terminus and purified by a Ni column followed by size exclusion chromatography. Glucose was obtained from Calbiochem, and other reagents were from Sigma.
All assays were performed in a Corning 96-well plate using Spectramax PLUS spectrophotometer (Molecular Devices) at room temperature. The final assay volume was 100 uL. The buffer conditions used in this assay were as follows: 50 mM HEPES, 5 mM glucose, 1 mM ATP, 2 mM MgCl2, 0.7mM NADH, 2 mM DTT, 1 Unit/mL PK/LDH, 0.2 mM phosphoenolpyruvate, 25 mM KCl. Tested compound in DMSO solution was added to the buffer and mixed well by a plate shaker for 1 minute. The final concentration of DMSO introduced into the assay was 1%.
Glucokinase was added to the buffer mixture to initiate the reaction in the presence and absence of compound. Reaction was monitored by absorbance at 340nm due to the depletion of NADH. The initial reaction velocity was measured by the slope of a linear time course of 200-900 sec.
The percentage of activation was calculated by the following equation: % Activation=(Va/Vo−1)×100;
wherein each of Va and Vo is defined as the initial reaction velocity in the presence and absence of the tested compound, respectively.
The GK activities were measured as a function of compound concentrations.

SMILES | activation at 10 µM [%] | EC50 [nM] | Emax [%]
Cc1ccc(NC(=O)c2cc(Oc3ccc(S(C)(=O)=O)cc3)c3c(c2)OC(C)(C)C3)nc1 [Example 3, 4-(4-Methanesulfonyl-phenoxy)-2,2-dimethyl-2,3-dihydrobenzofuran-6-carboxylic acid(5-methyl-pyridin-2-yl)-amide] | 145 | 348 | 140
Cc1cc2cc(Oc3ccc(S(C)(=O)=O)cc3)cc(C(=O)Nc3ccn(C)n3)c2o1 [Example 4, 5-(4-Methanesulfonyl-phenoxy)-2-methyl-benzofuran-7-carboxylic acid(1-methyl-1H-pyrazol-3-yl)-amide] | 14.6 | – | –
Cc1cc2cc(Oc3ccc(S(C)(=O)=O)cc3)cc(C(=O)Nc3ccccn3)c2o1 [Example 5, 5-(4-Methanesulfonyl-phenoxy)-2-methyl-benzofuran-7-carboxylic acid pyridin-2-ylamide] | -6.3 | – | –
Cc1ccc(NC(=O)c2cc(Oc3ccc(S(C)(=O)=O)cc3)cc3c2CCO3)nc1 [Example 6, 6-(4-Methanesulfonyl-phenoxy)-2,3-dihydrobenzofuran-4-carboxylic acid(5-methyl-pyridin-2-yl)-amide] | 87.6 | 9600 | 123
Cc1ccc(NC(=O)c2cc(Oc3ccc(S(C)(=O)=O)cc3)cc3occc23)nc1 [Example 7, 6-(4-Methanesulfonyl-phenoxy)-benzofuran-4-carboxylic acid(5-methyl-pyridin-2-yl)-amide] | 99.7 | 3700 | 129
Cc1ccc(NC(=O)c2cc3c(c(Oc4ccc(S(C)(=O)=O)cc4)c2)CCO3)nc1 [Example 8, 4-(4-Methanesulfonyl-phenoxy)-2,3-dihydro-benzofuran-6-carboxylic acid(5-methyl-pyridin-2-yl)-amide] | 127 | 2800 | 100
Cc1ccc(NC(=O)c2cc(Oc3ccc(S(C)(=O)=O)cc3)c3ccoc3c2)nc1 [Example 9, 4-(4-Methanesulfonyl-phenoxy)-benzofuran-6-carboxylic acid(5-methyl-pyridin-2-yl)-amide] | 72.7 | 3080 | 94.7
Cc1ccc(NC(=O)c2cc(Oc3ccc(S(C)(=O)=O)cc3)c3c(c2)OC(C)C3)nc1 (stereo not drawn) [Example 10, 4-(4-Methanesulfonyl-phenoxy)-2-methyl-2,3-dihydro-benzofuran-6-carboxylic acid(5-methyl-pyridin-2-yl)-amide] | 98.7 | 1100 | 122
CC1Cc2c(Oc3ccc(S(C)(=O)=O)cc3)cc(C(=O)Nc3ccn(C)n3)cc2O1 (stereo not drawn) [Example 11, 4-(4-Methanesulfonyl-phenoxy)-2-methyl-2,3-dihydro-benzofuran-6-carboxylic acid(1-methyl-1H-pyrazol-3-yl)-amide] | 158 | 2000 | 177
CC(C)COc1cc(C(=O)Nc2ccc(C(=O)O)cn2)cc2c1CC(C)(C)O2 [Example 14, 6-[(4-Isobutoxy-2,2-dimethyl-2,3-dihydro-benzofuran-6-carbonyl)-amino]-nicotinic acid] | 167 | 1300 | 115
CC1(C)Cc2c(Oc3ccc(S(C)(=O)=O)cc3)cc(C(=O)Nc3ccc(C(N)=O)cn3)cc2O1 [Example 15, 6-{[4-(4-Methanesulfonyl-phenoxy)-2,2-dimethyl-2,3-dihydro-benzofuran-6-carbonyl]-amino}-nicotinamide] | 4.3 | – | –
Cn1ccc(NC(=O)c2cc(Oc3ccc(S(C)(=O)=O)cc3)c3c(c2)OC(C)(C)C3)n1 [Example 16, 4-(4-Methanesulfonyl-phenoxy)-2,2-dimethyl-2,3-dihydro-benzofuran-6-carbo-xylic acid(1-methyl-1H-pyrazol-3-yl)-amide] | 213 | 506 | 192
CC1(C)Cc2c(Oc3ccc(S(C)(=O)=O)cc3)cc(C(=O)Nc3cnccn3)cc2O1 [Example 17, 4-(4-Methanesulfonyl-phenoxy)-2,2-dimethyl-2,3-dihydrobenzofuran-6-carboxy-lic acid pyrazin-2-ylamide] | 161 | 510 | 165

Results, then the compound that gave them:

activation at 10 µM [%] | EC50 [nM] | Emax [%] | SMILES
105 | 950 | 114 | COc1ccnc(NC(=O)c2cc(Oc3ccc(S(C)(=O)=O)cc3)c3c(c2)OC(C)(C)C3)c1 [Example 18, 4-(4-Methanesulfonyl-phenoxy)-2,2-dimethyl-2,3-dihydro-benzofuran-6-carbo-xylic acid(4-methoxy-pyridin-2-yl)-amide]
139 | 370 | 156 | CC1(C)Cc2c(Oc3ccc(S(C)(=O)=O)cc3)cc(C(=O)Nc3ccccn3)cc2O1 [Example 19, 4-(4-Methanesulfonyl-phenoxy)-2,2-dimethyl-2,3-dihydro-benzofuran-6-carbo-xylic acid pyridin-2-ylamide]
230 | 314 | 231 | Cn1ncc(NC(=O)c2cc(Oc3ccc(S(C)(=O)=O)cc3)c3c(c2)OC(C)(C)C3)n1 [Example 20, 4-(4-Methanesulfonyl-phenoxy)-2,2-dimethyl-2,3-dihydro-benzofuran-6-carbo-xylic acid(2-methyl-2H-[1,2,3]triazol-4-yl)-amide]
97.9 | 3900 | 127 | Cc1ccc(NC(=O)c2cc(Oc3ccc(S(C)(=O)=O)cc3)c3c(c2)OC(C)(C)C3)nn1 [Example 21, 4-(4-Methanesulfonyl-phenoxy)-2,2-dimethyl-2,3-dihydro-benzofuran-6-carboxylic acid (6-methyl-pyridazin-3-yl)-amide]
118 | 290 | 117 | CC1(C)Cc2c(Oc3ccc(S(C)(=O)=O)cc3)cc(C(=O)Nc3ccc(CO)cn3)cc2O1 [Example 22, 4-(4-Methanesulfonyl-phenoxy)-2,2-dimethyl-2,3-dihydro-benzofuran-6-carboxylic acid (5-hydroxymethyl-pyridin-2-yl)-amide]
46.1 | 1400 | 70 | Cc1ccnc(NC(=O)c2cc(Oc3ccc(S(C)(=O)=O)cc3)c3c(c2)OC(C)(C)C3)c1 [Example 23, 4-(4-Methanesulfonyl-phenoxy)-2,2-dimethyl-2,3-dihydro-benzofuran-6-carboxylic acid(4-methyl-pyridin-2-yl)-amide]
121 | 1490 | 140 | Cc1nnc(NC(=O)c2cc(Oc3ccc(S(C)(=O)=O)cc3)c3c(c2)OC(C)(C)C3)s1 [Example 24, 4-(4-Methanesulfonyl-phenoxy)-2,2-dimethyl-2,3-dihydro-benzofuran-6-carboxylic acid(5-methyl-[1,3,4]thiadiazol-2-yl)-amide]
102 | 1300 | 116 | Cc1cc(NC(=O)c2cc(Oc3ccc(S(C)(=O)=O)cc3)c3c(c2)OC(C)(C)C3)no1 [Example 25, 4-(4-Methanesulfonyl-phenoxy)-2,2-dimethyl-2,3-dihydro-benzofuran-6-carboxylic acid(5-methyl-isoxazol-3-yl)-amide]
197 | 400 | 200 | CC1(C)Cc2c(Oc3ccc(S(C)(=O)=O)cc3)cc(C(=O)Nc3ccon3)cc2O1 [Example 26, 4-(4-Methanesulfonyl-phenoxy)-2,2-dimethyl-2,3-dihydro-benzofuran-6-carboxylic acid isoxazol-3-ylamide]
112 | 1100 | 112 | CCc1nnc(NC(=O)c2cc(Oc3ccc(S(C)(=O)=O)cc3)c3c(c2)OC(C)(C)C3)s1 [Example 27, 4-(4-Methanesulfonyl-phenoxy)-2,2-dimethyl-2,3-dihydro-benzofuran-6-carboxylic acid(5-ethyl-[1,3,4]thiadiazol-2-yl)-amide]
123 | 2000 | 158 | CC1(C)Cc2c(Oc3ccc(S(C)(=O)=O)cc3)cc(C(=O)Nc3nnc(C4CC4)s3)cc2O1 [Example 28, 4-(4-Methanesulfonyl-phenoxy)-2,2-dimethyl-2,3-dihydro-benzofuran-6-carboxylic acid(5-cyclopropyl-[1,3,4]thiadiazol-2-yl)-amide]
